Results published in ChEMBL document CHEMBL1201862, “PubChem BioAssay data set” (2004).
The source made the active and inactive calls.

Assays:
[1] = tested on: BJ; assay: cytotoxicity toward BJ-TERT-LT-ST fibroblasts, dose response, cell-based, RAS-independent, luminescence (AID 1935); format: functional; conditions: Homo sapiens;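 further: BJ fibroblasts immortalized with TERT plus LT and ST oncogenes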
[2] = tested on: BJ; assay: cells; format: functional, cell-based; conditions: Homo sapiens
[3] = cytotoxicity toward DRD oncogenic fibroblasts, dose response, cell-based, non-viral oncogenic, luminescence (AID 1934); format: functional; conditions: Homo sapiens
[4] = tested on: BJ; assay: cytotoxicity toward BJ-TERT fibroblasts, dose response, cell-based, RAS-independent, luminescence (AID 1933); format: functional; conditions: Homo sapiens
[5] = target: T1, Fatty acid synthase (Homo sapiens, UniProt P49327); assay: FAS thioesterase domain inhibitors, dose response, biochemical, endpoint fluorescence intensity, uHTS hits (AID 624327); format: functional;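 further: fluorescence from hydrolysis of an O-methyl fluorescein acyl ester substrate by the enzyme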
[6] = target: T1, Fatty acid synthase; assay: FAS thioesterase domain inhibitors, dose response, biochemical, kinetic fluorescence intensity (AID 624326); format: functional;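 further: rate of fluorescence rise from hydrolysis of a fluorogenic O-methyl fluorescein ester substrate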
[7] = inhibitors of intracellular T. cruzi replication, confirmation, NIH3T3 host cells, beta-gal luminescence (AID 2044); format: functional, cell-based;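 further: intracellular parasites grown in NIH/3T3 mouse fibroblasts as host cells; luminescent beta-galactosidase reporter signal from transgenic T. cruzi replicating inside host cells; inhibitors lower the luminescence signal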
[8] = cytotoxicity toward NIH3T3 fibroblasts, dose response, counter-screen, cell-based, ATP luminescence, mouse fibroblasts (AID 2010); format: functional;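 further: cells exposed to compound for about 90 hours before reading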
[9] = target: T2, Replicative DNA helicase DnaB (Mycobacterium tuberculosis, UniProt P9WMR3); assay: DnaB intein splicing inhibitors, dose response, biochemical, cell-free fluorescence (AID 449749); format: functional
T2 sequence (P9WMR3 whole entry): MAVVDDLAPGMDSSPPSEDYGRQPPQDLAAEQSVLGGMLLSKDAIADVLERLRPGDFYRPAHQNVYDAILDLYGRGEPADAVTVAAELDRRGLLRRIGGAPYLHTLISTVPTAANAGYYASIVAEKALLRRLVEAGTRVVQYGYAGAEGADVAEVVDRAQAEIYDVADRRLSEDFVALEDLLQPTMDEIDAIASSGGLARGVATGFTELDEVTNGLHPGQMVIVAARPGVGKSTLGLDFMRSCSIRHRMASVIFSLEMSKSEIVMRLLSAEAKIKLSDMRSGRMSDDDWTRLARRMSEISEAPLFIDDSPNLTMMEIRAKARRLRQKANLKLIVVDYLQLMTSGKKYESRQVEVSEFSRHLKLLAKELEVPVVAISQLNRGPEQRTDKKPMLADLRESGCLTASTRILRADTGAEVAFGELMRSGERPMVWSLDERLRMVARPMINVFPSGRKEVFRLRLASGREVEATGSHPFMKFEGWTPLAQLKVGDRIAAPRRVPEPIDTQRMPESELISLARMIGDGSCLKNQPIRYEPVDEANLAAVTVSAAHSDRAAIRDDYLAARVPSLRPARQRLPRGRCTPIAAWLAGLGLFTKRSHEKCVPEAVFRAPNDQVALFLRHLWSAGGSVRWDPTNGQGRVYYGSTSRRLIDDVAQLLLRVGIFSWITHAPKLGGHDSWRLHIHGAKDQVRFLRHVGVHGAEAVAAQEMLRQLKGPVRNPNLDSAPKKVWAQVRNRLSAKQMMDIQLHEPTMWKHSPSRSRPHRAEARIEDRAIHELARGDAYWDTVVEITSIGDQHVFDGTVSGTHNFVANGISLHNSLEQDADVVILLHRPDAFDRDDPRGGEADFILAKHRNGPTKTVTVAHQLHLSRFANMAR

[10] = target: Genome polyprotein (dengue virus type 2, UniProt P29990); assay: Dengue-2 NS5 methyltransferase inhibitors, primary screen, biochemical, confirmation dose response (AID 588689); format: functional
[11] = target: T3, Protein RecA (Mycobacterium tuberculosis, UniProt P9WHJ3); assay: Fluorescence Cell-Free Homogeneous Dose Retest to Identify Inhibitors of RecA-Intein Splicing Activity. [Related pubchem assays (depositor defined):AID2097, AID2223, AID489010, AID492950]; format: functional
T3 sequence (P9WHJ3 whole entry): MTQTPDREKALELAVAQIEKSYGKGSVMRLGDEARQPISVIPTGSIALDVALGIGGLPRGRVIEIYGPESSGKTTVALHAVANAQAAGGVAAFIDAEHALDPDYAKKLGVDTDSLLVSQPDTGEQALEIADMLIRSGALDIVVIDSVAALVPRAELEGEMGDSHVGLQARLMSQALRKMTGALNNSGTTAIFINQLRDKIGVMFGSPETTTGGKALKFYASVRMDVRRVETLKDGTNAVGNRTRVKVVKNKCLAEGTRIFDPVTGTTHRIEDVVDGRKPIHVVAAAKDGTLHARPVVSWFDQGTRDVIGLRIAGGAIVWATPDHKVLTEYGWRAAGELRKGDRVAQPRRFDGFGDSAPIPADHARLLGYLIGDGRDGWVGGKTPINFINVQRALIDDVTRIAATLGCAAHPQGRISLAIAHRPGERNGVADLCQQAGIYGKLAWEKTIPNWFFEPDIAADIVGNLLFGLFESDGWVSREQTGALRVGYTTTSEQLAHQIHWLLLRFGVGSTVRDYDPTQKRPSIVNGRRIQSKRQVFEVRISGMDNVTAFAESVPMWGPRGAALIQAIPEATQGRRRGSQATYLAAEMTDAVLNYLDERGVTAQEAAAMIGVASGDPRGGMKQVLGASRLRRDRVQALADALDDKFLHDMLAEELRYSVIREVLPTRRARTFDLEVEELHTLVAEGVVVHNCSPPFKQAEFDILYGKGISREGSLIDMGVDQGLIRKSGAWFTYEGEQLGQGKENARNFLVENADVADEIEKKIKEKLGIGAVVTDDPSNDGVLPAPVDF

[12] = inhibitors of clade B AD8 Env fusion, dose response, cell-based, cherry-pick (AID 652062); format: functional;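 further: luciferase signal from cell-cell fusion driven by HIV-1 clade B AD8 Env; potency is for inhibitors of fusion seen as a drop in luminescence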
[13] = off-target signal loss in HeLa-CEM21 co-culture – HeLa F-luc CTL cells, cherry-picked, counter-screen for HIV-1 Env fusion inhibitor project, dose response (AID 652040); format: functional, cell-based;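 further: potency for signal decrease marking cytotoxic or nonspecific inhibition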
[14] = ZM109 Env clade C HIV-1 fusion inhibitors, dose response, HeLa effector, CEM target cells, luciferase, cherry-pick (AID 652058); format: functional, cell-based
[15] = inhibitors of HIV Env-driven cell fusion, dose response, cherry-pick (AID 652057); format: functional, cell-based
[16] = cells; format: functional, cell-based
[17] = cells; format: functional, cell-based; remark: listed apart in the source
[18] = target: Induced myeloid leukemia cell differentiation protein Mcl-1 (Homo sapiens, UniProt Q07820); format: functional
[19] = target: T4, Heat shock factor protein 1 (Mus musculus, UniProt P38532); assay: inhibition of MG132-induced HSE-luciferase signal, confirmation, cell-based, NIH3T3, luminescence, dose retest (AID 2382); format: functional;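 further: NIH3T3 fibroblasts with HSF1-driven luciferase reporter stressed by proteasome inhibitor MG132; luminescence from HSF1-driven luciferase expression after 8 hours of MG132 stress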
T4 sequence (P38532 whole entry): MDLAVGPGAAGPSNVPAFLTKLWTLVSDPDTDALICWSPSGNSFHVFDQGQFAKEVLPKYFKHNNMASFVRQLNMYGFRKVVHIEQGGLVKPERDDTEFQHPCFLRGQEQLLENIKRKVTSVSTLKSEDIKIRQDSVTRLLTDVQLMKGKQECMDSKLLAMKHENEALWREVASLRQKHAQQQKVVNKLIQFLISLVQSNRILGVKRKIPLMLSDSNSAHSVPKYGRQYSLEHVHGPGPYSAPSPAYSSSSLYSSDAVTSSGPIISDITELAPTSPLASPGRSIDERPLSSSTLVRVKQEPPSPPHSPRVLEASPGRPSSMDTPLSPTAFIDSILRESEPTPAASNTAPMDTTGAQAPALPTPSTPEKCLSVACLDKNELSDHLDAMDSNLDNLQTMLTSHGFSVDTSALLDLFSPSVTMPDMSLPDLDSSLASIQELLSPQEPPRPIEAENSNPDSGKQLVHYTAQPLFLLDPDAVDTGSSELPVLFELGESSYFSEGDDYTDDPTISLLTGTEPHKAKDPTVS

[20] = target: FAD-linked sulfhydryl oxidase ALR (Homo sapiens, UniProt P55789); assay: inhibitors of human ALR sulfhydryl oxidase, dose response, biochemical, H2O2 detection, luminescence, cherry-pick (AID 493248)
FAD-linked sulfhydryl oxidase ALR, sequence (P55789 whole entry): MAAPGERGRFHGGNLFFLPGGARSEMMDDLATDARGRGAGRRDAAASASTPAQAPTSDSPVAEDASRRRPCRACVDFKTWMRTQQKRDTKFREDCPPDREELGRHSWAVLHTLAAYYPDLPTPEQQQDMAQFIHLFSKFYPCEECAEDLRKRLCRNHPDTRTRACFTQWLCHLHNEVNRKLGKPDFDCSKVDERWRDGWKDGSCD

T1 sequence (P49327 whole entry, the tested form may be a part): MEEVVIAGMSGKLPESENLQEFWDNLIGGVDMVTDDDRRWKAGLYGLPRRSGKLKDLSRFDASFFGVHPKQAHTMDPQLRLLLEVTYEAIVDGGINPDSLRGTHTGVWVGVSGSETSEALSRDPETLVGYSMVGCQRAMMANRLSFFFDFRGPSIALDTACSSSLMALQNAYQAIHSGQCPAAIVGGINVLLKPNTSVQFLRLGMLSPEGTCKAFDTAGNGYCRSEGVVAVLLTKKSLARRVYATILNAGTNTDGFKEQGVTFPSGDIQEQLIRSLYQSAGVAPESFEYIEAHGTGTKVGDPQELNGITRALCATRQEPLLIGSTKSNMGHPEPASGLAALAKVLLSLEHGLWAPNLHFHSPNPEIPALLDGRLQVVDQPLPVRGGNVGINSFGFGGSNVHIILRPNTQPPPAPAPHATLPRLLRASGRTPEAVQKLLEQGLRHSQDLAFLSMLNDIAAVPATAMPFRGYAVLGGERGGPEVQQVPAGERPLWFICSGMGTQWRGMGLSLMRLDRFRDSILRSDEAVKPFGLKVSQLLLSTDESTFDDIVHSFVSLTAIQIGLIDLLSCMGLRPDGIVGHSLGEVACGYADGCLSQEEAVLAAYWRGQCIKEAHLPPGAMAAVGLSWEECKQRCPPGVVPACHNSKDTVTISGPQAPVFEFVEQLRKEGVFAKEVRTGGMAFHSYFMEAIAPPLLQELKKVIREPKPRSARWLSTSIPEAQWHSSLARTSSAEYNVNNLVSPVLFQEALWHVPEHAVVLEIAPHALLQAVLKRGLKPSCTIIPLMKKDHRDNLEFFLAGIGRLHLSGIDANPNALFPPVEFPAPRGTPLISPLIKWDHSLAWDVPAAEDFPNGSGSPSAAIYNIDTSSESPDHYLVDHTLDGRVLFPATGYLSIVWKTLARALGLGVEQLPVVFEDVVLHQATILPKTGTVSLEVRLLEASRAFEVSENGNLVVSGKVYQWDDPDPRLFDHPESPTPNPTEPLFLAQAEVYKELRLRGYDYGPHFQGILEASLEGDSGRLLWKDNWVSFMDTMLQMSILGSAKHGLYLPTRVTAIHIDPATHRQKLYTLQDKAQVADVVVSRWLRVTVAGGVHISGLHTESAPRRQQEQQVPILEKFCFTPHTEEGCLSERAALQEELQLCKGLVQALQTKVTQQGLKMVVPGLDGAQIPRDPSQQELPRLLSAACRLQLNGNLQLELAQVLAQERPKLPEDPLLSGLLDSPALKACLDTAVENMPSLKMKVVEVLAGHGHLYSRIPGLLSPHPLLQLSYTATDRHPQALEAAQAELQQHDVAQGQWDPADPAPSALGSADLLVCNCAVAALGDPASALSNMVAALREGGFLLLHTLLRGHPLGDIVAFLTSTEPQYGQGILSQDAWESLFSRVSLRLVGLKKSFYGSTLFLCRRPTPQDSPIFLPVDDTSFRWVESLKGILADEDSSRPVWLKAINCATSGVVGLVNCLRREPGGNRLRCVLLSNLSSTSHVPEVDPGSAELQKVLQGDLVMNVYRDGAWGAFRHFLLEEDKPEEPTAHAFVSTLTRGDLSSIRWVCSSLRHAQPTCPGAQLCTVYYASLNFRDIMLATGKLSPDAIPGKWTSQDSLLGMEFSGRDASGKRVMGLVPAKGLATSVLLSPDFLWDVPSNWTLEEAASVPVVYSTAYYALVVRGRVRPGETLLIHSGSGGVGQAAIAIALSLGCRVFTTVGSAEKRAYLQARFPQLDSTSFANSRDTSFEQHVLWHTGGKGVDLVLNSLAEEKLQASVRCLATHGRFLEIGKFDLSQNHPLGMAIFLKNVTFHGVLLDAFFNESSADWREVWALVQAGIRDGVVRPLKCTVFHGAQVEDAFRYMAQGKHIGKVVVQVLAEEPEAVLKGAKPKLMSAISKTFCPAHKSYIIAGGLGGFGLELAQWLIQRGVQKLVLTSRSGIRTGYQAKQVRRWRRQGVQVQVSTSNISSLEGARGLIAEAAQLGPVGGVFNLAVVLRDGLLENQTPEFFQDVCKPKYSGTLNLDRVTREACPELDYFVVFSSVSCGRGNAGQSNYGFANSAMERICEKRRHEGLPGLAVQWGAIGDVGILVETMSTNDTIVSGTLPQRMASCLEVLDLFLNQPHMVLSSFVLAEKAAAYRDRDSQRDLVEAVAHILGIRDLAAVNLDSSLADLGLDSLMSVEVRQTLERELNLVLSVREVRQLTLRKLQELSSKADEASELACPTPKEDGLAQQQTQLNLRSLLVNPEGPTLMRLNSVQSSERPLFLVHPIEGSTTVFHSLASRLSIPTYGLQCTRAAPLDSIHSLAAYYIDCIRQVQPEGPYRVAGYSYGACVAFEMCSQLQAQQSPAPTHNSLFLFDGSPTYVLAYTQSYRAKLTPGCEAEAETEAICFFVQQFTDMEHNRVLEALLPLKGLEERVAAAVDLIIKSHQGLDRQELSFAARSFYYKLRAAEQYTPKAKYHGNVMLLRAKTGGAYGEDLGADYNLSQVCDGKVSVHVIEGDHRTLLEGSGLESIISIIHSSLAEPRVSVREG
Genome polyprotein, sequence (P29990 2492-3391 limits assumed): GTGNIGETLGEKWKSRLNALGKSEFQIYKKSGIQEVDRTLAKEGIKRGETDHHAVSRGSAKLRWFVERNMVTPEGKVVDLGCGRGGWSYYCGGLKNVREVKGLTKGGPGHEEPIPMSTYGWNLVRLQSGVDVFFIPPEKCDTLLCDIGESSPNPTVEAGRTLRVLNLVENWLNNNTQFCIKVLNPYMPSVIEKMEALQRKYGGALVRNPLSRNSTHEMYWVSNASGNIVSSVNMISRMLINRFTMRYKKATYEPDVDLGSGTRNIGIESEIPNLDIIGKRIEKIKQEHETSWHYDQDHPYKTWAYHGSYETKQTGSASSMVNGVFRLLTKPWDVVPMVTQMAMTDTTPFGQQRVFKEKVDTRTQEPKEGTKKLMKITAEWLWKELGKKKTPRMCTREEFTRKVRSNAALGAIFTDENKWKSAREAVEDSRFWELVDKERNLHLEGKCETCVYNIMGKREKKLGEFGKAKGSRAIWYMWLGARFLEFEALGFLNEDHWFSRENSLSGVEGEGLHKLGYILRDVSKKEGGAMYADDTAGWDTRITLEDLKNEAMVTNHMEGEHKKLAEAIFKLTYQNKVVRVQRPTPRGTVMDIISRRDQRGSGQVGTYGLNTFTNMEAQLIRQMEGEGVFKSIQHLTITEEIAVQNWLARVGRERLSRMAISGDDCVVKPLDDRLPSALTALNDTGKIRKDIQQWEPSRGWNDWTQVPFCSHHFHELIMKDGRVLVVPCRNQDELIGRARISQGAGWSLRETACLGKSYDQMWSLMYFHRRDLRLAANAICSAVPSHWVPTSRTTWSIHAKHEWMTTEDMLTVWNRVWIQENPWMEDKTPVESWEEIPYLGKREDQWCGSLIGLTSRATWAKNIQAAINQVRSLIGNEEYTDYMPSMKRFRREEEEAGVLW
Induced myeloid leukemia cell differentiation protein Mcl-1, sequence (Q07820 whole entry): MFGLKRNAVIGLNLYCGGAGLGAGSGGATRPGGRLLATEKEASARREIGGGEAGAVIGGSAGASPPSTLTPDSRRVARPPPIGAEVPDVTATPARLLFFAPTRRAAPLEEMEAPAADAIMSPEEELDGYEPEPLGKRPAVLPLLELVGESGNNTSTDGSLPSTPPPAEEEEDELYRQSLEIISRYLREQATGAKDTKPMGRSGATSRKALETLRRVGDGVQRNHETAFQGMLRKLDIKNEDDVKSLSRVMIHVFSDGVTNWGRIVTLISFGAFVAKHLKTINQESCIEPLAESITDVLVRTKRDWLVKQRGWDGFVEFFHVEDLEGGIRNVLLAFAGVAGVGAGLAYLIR

COC(=O)Cn1c(=O)c(C(=O)CCl)c(N)n(Cc2ccccc2)c1=O
EC50 [1]: 16.3 µM (inconclusive)
EC50 [2]: 7 µM (active)
EC50 [3]: 4.86 µM (inconclusive)
EC50 [4]: 0.797 µM (active)

O=C(Cn1cnc2cc([N+](=O)[O-])ccc2c1=O)Nc1ccc2c(c1)OCO2
IC50 [5]: 4.19 µM (active)
IC50 [6]: 3.65 µM (active)
EC50 [7]: 2.31 µM (active)
EC50 [8]: > 60 µM (not active)

CCc1ccccc1N1C(=O)C(Cl)=C(N2CCOCC2)C1=O
AC50 [9]: 6.57 µM (active)
IC50 [10]: 83.2 µM (active)
EC50 [11]: 4.01 µM (active)

CC(NC(=O)CN(C)CC(=O)Nc1ccc(Cl)c(C(F)(F)F)c1)c1ccccc1 (stereo unspecified)
AC50 [12]: 14.9 µM (active)
AC50 [13]: 15.7 µM (active)
AC50 [14]: 8.39 µM (active)
AC50 [15]: 4.06 µM (active)

COC(=O)Nc1ccc(S(=O)(=O)N(C)C)cc1
EC50 [16]: > 350 µM (not active)
EC50 [17]: > 350 µM (not active)

CC(C)OC(=O)/C(C#N)=C/c1cn(C)c2ccccc12
IC50 [5]: 13.8 µM (active)
IC50 [6]: 11.1 µM (active)

COc1cccc(-n2c(SCC(=O)N3CCOCC3)nc3c4ccccc4nc-3c2O)c1
EC50 [16]: > 350 µM (not active)
EC50 [17]: > 350 µM (not active)

Cc1cccc(NC(=O)C2CCN(S(=O)(=O)c3ccc4c(c3)OCCCO4)CC2)n1
AC50 [12]: 13.1 µM (active)
AC50 [13]: 42.2 µM (active)
AC50 [15]: 66.2 µM (active)

C=CCOC(=O)/C(=C\c1ccccc1)NC(=O)c1ccc(C)cc1
IC50 [18]: 2.49 µM (not active)

CC(C)C(=O)Nc1sc2c(c1C(N)=O)CCN(Cc1ccccc1)C2
EC50 [1]: > 150 µM (not active)
EC50 [2]: > 150 µM (not active)
EC50 [3]: 47.8 µM (active)
EC50 [4]: > 150 µM (not active)

COc1ccc(C(=O)Nn2c(SCc3cccc([N+](=O)[O-])c3)nc3ccccc3c2=O)cc1
IC50 [5]: 17.5 µM (active)
IC50 [6]: 14.3 µM (active)

CCN(CC)c1nc(Nc2ccccc2)nc(Oc2ccc(O)nn2)n1
AC50 [12]: 9.57 µM (active)
AC50 [13]: 5.99 µM (active)
AC50 [14]: 9.89 µM (active)
AC50 [15]: 6.13 µM (active)

COc1ccc2cc(C(C)C(=O)N3CCC(C(N)=O)CC3)ccc2c1 (stereo unspecified)
EC50 [16]: > 350 µM (not active)
EC50 [17]: > 350 µM (not active)

CC(=O)Nc1ccc2c(c1)CCCC2=O
EC50 [16]: > 350 µM (not active)
EC50 [17]: > 350 µM (not active)

COc1ccc(/C=C(\C#N)c2nc3ccccc3[nH]2)cc1O
EC50 [16]: > 350 µM (not active)
EC50 [17]: 8.05 µM (active)

O=C(Nc1ncc2c(n1)-c1ccccc1OC2)c1cccc([N+](=O)[O-])c1
IC50 [5]: 9.93 µM (active)
IC50 [6]: 13 µM (active)

CC(CCc1ccccc1)NC(=O)c1cccc([N+](=O)[O-])c1 (stereo unspecified)
IC50 [5]: 6.29 µM (active)
IC50 [6]: 7.07 µM (active)
EC50 [19]: > 195 µM (not active)

O=C(CCN1C(=O)/C(=C/c2ccccc2Cl)SC1=S)Nc1ccccn1
IC50 [5]: 6.7 µM (active)
IC50 [6]: 1.96 µM (active)

O=C(C[C@H]1C[C@H](C(=O)N2CCOCC2)[C@@]2(CCC3CCCC3)c3[nH]c4ccc(Cl)cc4c3CCN2C1=O)NCCc1ccccn1
IC50 [5]: 1.03 µM (active)
IC50 [6]: 1.15 µM (active)

Cc1ccc(C(=O)Nc2ccccc2C(=O)O)cc1S(=O)(=O)Nc1ccc(Br)cc1
IC50 [10]: 49.8 µM (active)
AC50 [20]: 0.628 µM (active)

C=C1CCN([C@@H](CC(C)C)C(=O)Nc2ccc(OC)cc2)S(=O)(=O)c2ccccc21
AC50 [12]: 3.63 µM (active)
AC50 [13]: 4.03 µM (active)
AC50 [14]: 2.47 µM (active)
AC50 [15]: 2.12 µM (active)
